Measurements from PubChem BioAssay AID1508612.

Test: passive permeability, PAMPA, ADME assay (AID 1508612)
Conditions: pH 7.4, 30.0 min, 50.0 µM

## COc1ccc(S(=O)(=O)N2CCN(C(=O)C3COc4ccccc4O3)CC2)cc1 (configuration not stated)
  Papp: > 1000 ×10⁻⁶ cm/s

## COc1ccc(OC)c(CNc2ncnc3onc(C)c23)c1
  Papp: 366 ×10⁻⁶ cm/s

## CCCCCCCc1c(C)nc(N2CCOCC2)[nH]c1=O
  Papp: > 1000 ×10⁻⁶ cm/s

## CC(=O)c1ccc(N2CCN(C(=O)c3ccc4c(c3)CC(=O)N4)CC2)cc1
  Papp: 40.5 ×10⁻⁶ cm/s

## O=C(Nc1nc(-c2ccccc2)cs1)c1ccncc1NS(=O)(=O)c1ccc(N2CCCC2=O)cc1
  Papp: 314 ×10⁻⁶ cm/s

## CC#CC(=O)N1CCC[C@H]1c1nc(-c2ccc(C(=O)Nc3ccccn3)cc2)c2c(N)nccn12
  Papp: 39.9 ×10⁻⁶ cm/s

## C[C@@H](c1ccc2nccn2c1)n1nnc2ncc(-c3cnn(C)c3)nc21
  Papp: 40.7 ×10⁻⁶ cm/s

## Cc1ccccc1C(=O)Nc1nc2c(s1)CC(C(C)(C)C)CC2 (configuration not stated)
  Papp: 257 ×10⁻⁶ cm/s

## Cc1ccc(S(=O)(=O)Nc2cnccc2C(=O)Nc2nc(-c3cnn(C)c3)cs2)cc1
  Papp: 54.9 ×10⁻⁶ cm/s

## Clc1ccc(Nc2nc(-c3ccncc3)nc3ccccc23)cc1Cl
  Papp: 76.1 ×10⁻⁶ cm/s

## CC(=O)c1ccc(N2CCN(S(=O)(=O)c3cc4c(cc3Cl)NC(=O)C4)CC2)cc1
  Papp: 558 ×10⁻⁶ cm/s

## CCN1C(=O)c2ccccc2[S@](=O)c2ccc(C(=O)NCc3ccc(F)cc3)cc21
  Papp: > 1000 ×10⁻⁶ cm/s

## Cc1ccccc1S(=O)(=O)Nc1cnccc1C(=O)Nc1nc(-c2ccccc2)cs1
  Papp: > 1000 ×10⁻⁶ cm/s

## Oc1cccc(-c2nc(N3CCOCC3)c3oc4ncccc4c3n2)c1
  Papp: 537 ×10⁻⁶ cm/s

## O=S(=O)(Nc1cccc(C(F)(F)F)c1)c1ccc(NS(=O)(=O)c2ccc3c(c2)OCCO3)cc1
  Papp: 668 ×10⁻⁶ cm/s

## COc1ncc(-c2ccc3c(Nc4cc(Oc5cc(F)cc(F)c5)cc(C(=O)O)c4)c(S(=O)(=O)NC4CC4)cnc3c2)c(OC)n1
  Papp: < 1 ×10⁻⁶ cm/s

## Fc1cc(Nc2nc(-c3ccncc3)nc3ccccc23)ccc1-c1ccncc1
  Papp: 15.4 ×10⁻⁶ cm/s

## O=C1NCc2ccc(-c3cc4c(ccn4Cc4cccnc4)c(C4=CCOCC4)n3)cc21
  Papp: 175 ×10⁻⁶ cm/s

## NC(=O)C1CCN(c2ncc(-c3ccc4c(c3)OC(F)(F)O4)s2)CC1
  Papp: 438 ×10⁻⁶ cm/s

## COc1ccc(S(=O)(=O)Nc2cnccc2C(=O)Nc2nc(-c3ccccc3)cs2)cc1
  Papp: 675 ×10⁻⁶ cm/s

## Cc1cnc(-c2ccccc2C(C)C)nc1NCC1CCN(c2cccnc2)CC1
  Papp: > 1000 ×10⁻⁶ cm/s

## COC(=O)CNC(=O)c1nc(-c2ccc(F)cc2)c2ccccn12
  Papp: > 1000 ×10⁻⁶ cm/s

## COc1ccc(-n2c(C)c(C(C)=O)c3cc(O)ccc32)cc1
  Papp: 415 ×10⁻⁶ cm/s

## O=C(CCc1ccccc1)NC(c1cccs1)c1cc(Cl)c2cccnc2c1O (configuration not stated)
  Papp: 20.9 ×10⁻⁶ cm/s

## O=c1c(-c2cccs2)ccc2n1C[C@H]1C[C@@H]2CN(C2CCOCC2)C1
  Papp: 460 ×10⁻⁶ cm/s

## OC(CCN1CCCCC1)c1ccc(-c2ccccc2)cc1 (configuration not stated)
  Papp: > 1000 ×10⁻⁶ cm/s

## Fc1ccc(Nc2nc(Nc3ccncc3)nc3ccccc23)cc1F
  Papp: 40.4 ×10⁻⁶ cm/s

## Oc1ccc(CN2CC(CNc3ccccc3)C3(C2)CN(c2ccccc2)C3)cc1 (configuration not stated)
  Papp: > 1000 ×10⁻⁶ cm/s

## COc1ccccc1CNc1ccc(S(=O)(=O)Nc2nccs2)cc1
  Papp: 512 ×10⁻⁶ cm/s

## CC(=O)c1c(C)c(C(=O)Nc2cccc([S+](=O)([O-])N3CCCCCC3)c2)n(C)c1C
  Papp: > 1000 ×10⁻⁶ cm/s

## O=C(Nc1cncc(Cc2ccccc2)c1)c1ccc(-c2cccc([N+](=O)[O-])c2)o1
  Papp: > 1000 ×10⁻⁶ cm/s

## O=S(=O)(Nc1ccc(C2CCNCC2)cc1)c1ccc(NCc2cccc(Cl)c2O)cc1
  Papp: 3.22 ×10⁻⁶ cm/s

## O=S(=O)(Nc1nccs1)c1ccc(NCc2cc(Cl)ccc2O)cc1
  Papp: 10.8 ×10⁻⁶ cm/s

## Nc1cc2nc3ccccc3oc-2cc1=O
  Papp: 106 ×10⁻⁶ cm/s

## Cc1ccccc1OCC(O)CO (configuration not stated)
  Papp: 44.4 ×10⁻⁶ cm/s

## C=Cc1ccc(C(=O)N2CCCC(CCC(=O)N3CCN(c4ccccn4)CC3)C2)cc1 (configuration not stated)
  Papp: 421 ×10⁻⁶ cm/s

## C#CCNC(=O)c1nc(-c2ccc([S+](C)(=O)[O-])cc2)c2ccccn12
  Papp: 545 ×10⁻⁶ cm/s

## CN(C(=O)c1cn2c(-c3ccc(C(F)(F)F)cc3)cnc2cn1)c1ccc(C#N)cc1
  Papp: 874 ×10⁻⁶ cm/s

## Cc1cc(C)c(C(=O)Nc2cccc([S+](=O)([O-])Nc3ccc(Br)cc3)c2)[nH]1
  Papp: 737 ×10⁻⁶ cm/s

## Cc1noc([C@@H]2CN(C(=O)c3nn(C)c4ccccc34)C[C@H]2CO)n1
  Papp: 84.2 ×10⁻⁶ cm/s

## CCc1ccc(NC(=O)c2[nH]c(C)c(C(C)=O)c2C)cc1[S+](=O)([O-])N1CCCCCC1
  Papp: 227 ×10⁻⁶ cm/s

## Cc1ccccc1C(=O)Nc1ccc2c(c1)CCCN2C(=O)c1cccs1
  Papp: 687 ×10⁻⁶ cm/s

## CO[C@@H]1/C=C\O[C@@]2(C)Oc3c(C)c(O)c4c(c3C2=O)C(=N[C@H]2CC[C@H](O)O[C@@H]2C)C=C(NC(=O)/C(C)=C\C(=O)[C@@H]2C[C@@H]2[C@@H](O)[C@H](C)[C@@H](O)[C@H](C)[C@H](OC(C)=O)[C@@H]1C)C4=O
  Papp: 2.33 ×10⁻⁶ cm/s

## CCN(C(=O)C(NS(=O)(=O)c1ccc(Br)s1)c1ccccc1)c1ccc(C)c(C)c1 (configuration not stated)
  Papp: 392 ×10⁻⁶ cm/s

## O=C1Nc2cccc(Cl)c2/C1=C\c1cc(Cl)c(O)c(Cl)c1
  Papp: 93.9 ×10⁻⁶ cm/s

## COc1cccc(CNc2ccc(S(=O)(=O)Nc3cccc(N4CCNCC4)c3)cc2)c1O
  Papp: 16 ×10⁻⁶ cm/s

## NC(=O)C1CCN(c2nc(-c3cccc(F)c3)cs2)CC1
  Papp: 685 ×10⁻⁶ cm/s

## O=C(Nc1ccccc1)C1CCN(c2nc(-c3ccc(Br)cc3)cs2)CC1
  Papp: 48.6 ×10⁻⁶ cm/s

## COc1cccc(-c2csc(N3CCC(C(N)=O)CC3)n2)c1
  Papp: 638 ×10⁻⁶ cm/s

## COc1oc(-c2cccc3ccccc23)nc1C(=O)O
  Papp: 1.44 ×10⁻⁶ cm/s

## Cc1ccc(S(=O)(=O)Nc2cc(Cl)c(Cl)cc2C(=O)Nc2nc(-c3ccccc3)cs2)cc1
  Papp: 5 ×10⁻⁶ cm/s

## CN(C)c1ccc2cc(C(=O)N[C@@H](CCCN=C(N)CCl)C(=O)NCc3ccccc3)ccc2c1
  Papp: < 1 ×10⁻⁶ cm/s

## Cc1cc(F)ccc1S(=O)(=O)Nc1cnccc1C(=O)Nc1nc(-c2ccccc2)cs1
  Papp: > 1000 ×10⁻⁶ cm/s

## Cc1cccc2c(C(=O)O)cc(-c3cccs3)nc12
  Papp: 18.8 ×10⁻⁶ cm/s

## COc1ccc2c(ccn2CCC(=O)Nc2ccc3c(c2)C(=O)N2CCC[C@H]2C(=O)N3)c1
  Papp: 22.6 ×10⁻⁶ cm/s

## CC(=O)N1CCc2c(sc3c2c(=O)n(-c2ccccc2Cl)c(=O)n3Cc2cccc(C)c2)C1
  Papp: 338 ×10⁻⁶ cm/s

## Cc1ccc(S(=O)(=O)Nc2ccccc2C(=O)Nc2nc(-c3ccccc3)cs2)cc1
  Papp: > 1000 ×10⁻⁶ cm/s

## CC(=O)N1CCc2c(sc3c2c(=O)n(-c2ccccc2)c(=O)n3CC(=O)c2ccccc2)C1
  Papp: 714 ×10⁻⁶ cm/s

## CNC(=O)Cn1cc(-c2ccc3c(c2)C(F)CC32NC(=O)N(CC(=O)N(Cc3ccc(F)cc3)[C@@H](C)C(F)(F)F)C2=O)cn1 (some centres not stated)
  Papp: 115 ×10⁻⁶ cm/s

## CN(C)C(=O)NC1CCC(CCN2CCN(c3cccc(Cl)c3Cl)CC2)CC1 (configuration not stated)
  Papp: 514 ×10⁻⁶ cm/s

## COc1ccccc1NS(=O)(=O)c1cccc(NC(=O)c2[nH]c(C)c(C(C)=O)c2C)c1
  Papp: 197 ×10⁻⁶ cm/s

## N#Cc1ccc(S(=O)(=O)Nc2cnccc2C(=O)Nc2nc(-c3ccccc3)cs2)cc1
  Papp: 279 ×10⁻⁶ cm/s

## CCOc1ccc(CCNC(=O)c2cc3ncccc3n2Cc2cccc(C)c2)cc1OCC
  Papp: > 1000 ×10⁻⁶ cm/s

## Fc1cnc(-c2ccccc2C(F)F)nc1NCc1ccc(-c2cccnc2)cc1
  Papp: > 1000 ×10⁻⁶ cm/s

## O=C(Nc1nc(-c2ccccc2)cs1)c1ccncc1NS(=O)(=O)c1ccc(-c2ccccc2)cc1
  Papp: < 1 ×10⁻⁶ cm/s

## CN1CCN(c2ccc(-c3cccc(CN4CCOCC4)c3)cc2NC(=O)c2c[nH]c(=O)cc2C(F)(F)F)CC1
  Papp: 3.88 ×10⁻⁶ cm/s

## CC(=O)c1c(C)[nH]c(C(=O)Nc2cccc([S+](=O)([O-])N3CC[C@@H](F)C3)c2)c1C
  Papp: 199 ×10⁻⁶ cm/s

## Cc1cc(C)nc(NS(=O)(=O)c2ccc(NC(=S)NC(=O)COc3ccc(Br)cc3Cl)cc2)n1
  Papp: 457 ×10⁻⁶ cm/s

## O=C(Nc1nnc(-c2cccs2)o1)c1ccc(Cl)cc1
  Papp: 126 ×10⁻⁶ cm/s

## Cc1ccc(S(=O)(=O)Nc2ccccc2C(=O)Nc2nc(-c3ccccc3)c(C)s2)cc1
  Papp: 30.1 ×10⁻⁶ cm/s

## COc1ccccc1Nc1cnc2ccc(-c3ccc(OC)c(OC)c3)nn12
  Papp: 397 ×10⁻⁶ cm/s

## CCOc1ccc(CCNC(=O)c2cc3ccccc3n2Cc2ccccn2)cc1OCC
  Papp: > 1000 ×10⁻⁶ cm/s

## COc1cc(-c2c(C#N)c(N)nc3c2c(C)nn3-c2ccc(F)cc2)ccc1O
  Papp: > 1000 ×10⁻⁶ cm/s

## Cc1nn2c(c1-c1ccccc1-c1ccccc1)N(CCC(C)C)CCC2
  Papp: 532 ×10⁻⁶ cm/s

## COc1ccc(O)c2c(=O)c3c(OC)cc4c(c3oc12)C1C=COC1O4 (configuration not stated)
  Papp: 890 ×10⁻⁶ cm/s

## Cc1ccc(-c2[nH]n3c(=O)c4c(nc3c2C)CCCC4)cc1
  Papp: 506 ×10⁻⁶ cm/s

## O=C1Nc2ccccc2/C1=C/c1ccc[nH]1
  Papp: 606 ×10⁻⁶ cm/s

## CC(C)NC(=O)N1C[C@@H]2C[C@H](C1)c1ccc(-c3cccc(C(F)(F)F)c3)c(=O)n1C2
  Papp: 189 ×10⁻⁶ cm/s

## O=C(Cc1cccc(OC(F)(F)F)c1)Nc1ccc(CCCCc2nnc(NC(=O)Cc3ccccn3)s2)nn1
  Papp: 161 ×10⁻⁶ cm/s

## FC(F)(F)c1cc(-c2ccc(CNc3nc(-c4ccccc4C(F)(F)F)nc4ccsc34)cc2)ccn1
  Papp: 455 ×10⁻⁶ cm/s

## c1ccc2c(Nc3ccc4nc[nH]c4c3)nc(-c3ccncc3)nc2c1
  Papp: 16.7 ×10⁻⁶ cm/s

## COc1cc2c(C(=O)N3CCN(c4cccc(C(F)(F)F)c4)CC3)cn(CC(C)C)c(=O)c2cc1OC
  Papp: > 1000 ×10⁻⁶ cm/s

## O=C1CCCC2=C1C(c1ncccc1Br)N=C(Nc1nc3ccccc3o1)N2 (configuration not stated)
  Papp: 371 ×10⁻⁶ cm/s

## NC(=O)C1CCN(c2nc(-c3ccccc3-c3ccccc3)cs2)CC1
  Papp: 606 ×10⁻⁶ cm/s

## CC(C)N(CCC(=O)c1ccc2ccccc2c1)Cc1ccccc1
  Papp: > 1000 ×10⁻⁶ cm/s

## C=CCc1cccc(CNc2ccc(S(=O)(=O)Nc3nccs3)cc2)c1O
  Papp: 134 ×10⁻⁶ cm/s

## Nc1ncnc(N2CCc3ccccc32)c1[N+](=O)[O-]
  Papp: 295 ×10⁻⁶ cm/s

## O=C(Cc1nc2ccc(Cl)cc2[nH]1)Nc1ccc(S(=O)(=O)Nc2nccs2)cc1
  Papp: < 1 ×10⁻⁶ cm/s

## Cc1cc(C)nc(NC(=S)N2CCN(c3cc(C(F)(F)F)nc4ccccc34)CC2)c1
  Papp: > 1000 ×10⁻⁶ cm/s

## Fc1ccc(Nc2nc(C3=CCNCC3)nc3ccccc23)cc1F
  Papp: > 1000 ×10⁻⁶ cm/s

## CNc1nc(-c2cccc3ccccc23)ccc1C#N
  Papp: 985 ×10⁻⁶ cm/s

## Fc1cc(Nc2nc(-c3ccncc3)nc3ccccc23)ccc1-c1cc(F)c(F)c(F)c1
  Papp: 21.1 ×10⁻⁶ cm/s

## CS(=O)(=O)c1ccc(-c2csc(N3CCC(C(N)=O)CC3)n2)cc1
  Papp: 74 ×10⁻⁶ cm/s

## CC1=C(C(=O)Nc2ccc(Cl)cc2)C(c2ccccc2C)n2ncc(C(=O)Nc3ccc(C)cc3)c2N1 (configuration not stated)
  Papp: 10.1 ×10⁻⁶ cm/s

## CCNc1oc(-c2cccc3ccccc23)nc1C#N
  Papp: 728 ×10⁻⁶ cm/s

## Cc1nnc(N2C(=O)c3oc4ccccc4c(=O)c3C2c2ccc(F)cc2)s1 (configuration not stated)
  Papp: 314 ×10⁻⁶ cm/s

## CCOc1ccc(CCNC(=O)c2cc3ccncc3n2Cc2cccc(C)c2)cc1OCC
  Papp: 20.6 ×10⁻⁶ cm/s

## CCOC(=O)C1=C(CN(CC)Cc2ccccc2)NC(=O)NC1c1ccc(OC(C)C)cc1 (configuration not stated)
  Papp: > 1000 ×10⁻⁶ cm/s

## Cc1ccc(C)c(NC2=C(c3ccc(C(F)(F)F)cc3)C(=O)c3ccccc32)c1
  Papp: < 1 ×10⁻⁶ cm/s

## C=C1C(=O)O[C@@H]2[C@H]3O[C@]3(C)CC/C=C(\C)CC[C@@H]12
  Papp: > 1000 ×10⁻⁶ cm/s

## O=C(Nc1nc(-c2ccccc2)cs1)c1ccncc1NS(=O)(=O)c1ccc(F)cc1F
  Papp: 798 ×10⁻⁶ cm/s

## N#Cc1cnccc1-c1nc(Nc2ccc(F)c(F)c2)c2ccccc2n1
  Papp: 269 ×10⁻⁶ cm/s
